Results from the METLIN SMRT retention time set (Domingo-Almenara et al. 2019).

assay: gradient 5% acetonitrile 3 min, to 50% in 2 min, to 85% in 15 min, held 3 min, 100 µL/min; details: column: Zorbax Extend-C18 2.1 x 50 mm; eluents: water / acetonitrile, 0.1% formic acid
Outline: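 In both positive and negative ionization mode, a quadrupole time-of-flight mass spectrometer coupled to HPLC analyzed pure standards run in mixtures of ~100 molecules. The Zorbax Extend-C18 column (2.1 × 50 mm, 1.8 μm) was operated at 100 μL/min with water and acetonitrile, each containing 0.1% formic acid. The dead volume was 40 μL and the dwell volume 900 μL. Retention time came from adduct peaks that were computationally picked and individually inspected by hand.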

SMILES	RP-LC retention time [s]
Cc1cc(C)n(-c2ccnc(N3CCC(C(=O)NCc4ccco4)CC3)n2)n1	742
CSCc1noc(Cn2ccc3ccn(CCN(C)C)c3c2=O)n1	597
O=C(CN1C[C@H]2C[C@H](C1)[C@H]1CCCC(=O)N1C2)NCC1CCCCC1	612
CCNC(=O)C1CCCN(c2nc3ncn(CC(=O)NCc4ccccc4Cl)c(=O)c3s2)C1 (configuration not stated)	670
CCOC(=O)c1[nH]c(C)c(CCC(=O)N2CCC(C(=O)NC(C)c3ccccc3)CC2)c1C (configuration not stated)	792
CN(C)c1cccc(C(=O)N2CCC3(C2)C(=O)N(C)c2ccccc23)c1 (configuration not stated)	710
O=C(CN1C(=O)NC2(CCCCC2)C1=O)Nc1ccc2c(c1)CCC2	846
Cn1nccc1-c1cccc(-c2noc(-c3cccc(F)c3)n2)c1	1150
Cn1cc2c(N3CCSCC3)nc(C(=O)NCc3ccc(N4CCCC4)cc3)nc2n1	699
Cc1cccc(S(=O)(=O)N2CC3CN(C(=O)C4CCCCC4)CC(C2)O3)c1	865
COc1cc(CN2CCC3(CC2)CC(C)(O)CCO3)cc(OC)c1 (configuration not stated)	561
Cc1ccc(Cl)cc1NC(=O)Cc1c(C)nn(-c2nc(-c3ccccc3)cs2)c1C	1230
O=C(C1=CCN(Cc2ccccc2)CC1)N1CCN(c2cccc(Cl)c2)CC1	707
CC(=O)N[C@@H]1CN(C(=O)Cc2cccc3ccccc23)C[C@H]1CO	637
c1ccc(-c2nnc(-c3cccnc3)o2)cc1	666
Cc1noc(CNC(=O)C2CCN(C(=O)c3ccc4ncsc4c3)CC2)n1	574
Cc1oc(-c2ccc(NC(=O)c3cccs3)cc2)nc1Cn1cccn1	836
CN1CCC(Cc2ccc(C(=O)O)cc2)CC1	569
CCOC(=O)c1noc2ncnc(Nc3cccc(CC)c3)c12	1060

SMILES	RP-LC retention time [s]
COCCN1C(=O)CS(=O)(=O)C12CCN(C(=O)C1(c3ccccc3)CC1)CC2	685
O=C(CN1C(=O)c2cccnc2Sc2ccccc21)NCCc1c[nH]c2ccc(Cl)cc12	817
CCOC(=O)c1[nH]c(C)c(CCC(=O)N2CCC(C(=O)NCCc3ccco3)CC2)c1C	743
CCOC(=O)N1CCC(NC(=O)c2cn(-c3cccc(Cl)c3)nn2)CC1	795
Cc1ccc(NC(=O)N2CCC[C@@H]2C(=O)NCc2csc(-c3ccccc3)n2)cc1C	861
O=C(NC1CCCCC1)C1CCCN(C(=O)c2ccc(F)c(F)c2)C1 (configuration not stated)	825
COCCNc1ccc2nnc(C)n2n1	590
CC(=O)N[C@@H](Cc1c[nH]c2ccccc12)C(=O)OCc1cc(C(F)(F)F)cc(C(F)(F)F)c1	1100
CCn1c(=O)sc2cc(S(=O)(=O)N3CCC(C(=O)Nc4ccc(C)cc4C)CC3)ccc21	932
CC(C)c1nc(N2CCN(c3ccccc3)CC2)ncc1C(=O)O	868
Cc1noc2ncnc(NCCN(C)Cc3ccccc3)c12	580
O=c1c2ccccc2n(Cc2nc(-c3ccc(C(F)(F)F)cc3)no2)c(=O)n1CC1CCCO1 (configuration not stated)	1100
CCc1ccc(CNC(=O)c2cccc(C3CCCN(C(=O)NC)C3)c2)cc1 (configuration not stated)	854
Cn1nccc1-c1cccc(-c2noc(-c3ccc(F)cc3Cl)n2)c1	1190
O=C(c1ccc(F)c(F)c1)N1CCc2nc(-c3ccccc3)ncc2C1	951
COc1cccc(-c2nc(-c3ccc4c(c3)oc(=O)n4C)no2)c1OC	959
Cc1cc(Cl)ccc1N1C(=O)CN(S(C)(=O)=O)CC1(C)C(=O)NCc1ccccc1 (configuration not stated)	863
CC1=NS(=O)(=O)N(Cc2ccccc2)C=C1C(=O)OCc1nc(-c2ccc(Cl)cc2)no1	1220
